This is an account of results in ChEMBL document CHEMBL1148283 (J Med Chem, 2004).

Experiment [1] deals with Nitric oxide synthase, inducible (Homo sapiens, UniProt P35228).
Experiment [2] deals with T1, Nitric oxide synthase 1 (Homo sapiens, UniProt P29475).
Description: In vitro inhibition of human neuronal nitric oxide synthase.
Another experiment concerns the target T2, Nitric oxide synthase 3 (Homo sapiens, UniProt P29474).
T2 sequence (P29474 whole entry): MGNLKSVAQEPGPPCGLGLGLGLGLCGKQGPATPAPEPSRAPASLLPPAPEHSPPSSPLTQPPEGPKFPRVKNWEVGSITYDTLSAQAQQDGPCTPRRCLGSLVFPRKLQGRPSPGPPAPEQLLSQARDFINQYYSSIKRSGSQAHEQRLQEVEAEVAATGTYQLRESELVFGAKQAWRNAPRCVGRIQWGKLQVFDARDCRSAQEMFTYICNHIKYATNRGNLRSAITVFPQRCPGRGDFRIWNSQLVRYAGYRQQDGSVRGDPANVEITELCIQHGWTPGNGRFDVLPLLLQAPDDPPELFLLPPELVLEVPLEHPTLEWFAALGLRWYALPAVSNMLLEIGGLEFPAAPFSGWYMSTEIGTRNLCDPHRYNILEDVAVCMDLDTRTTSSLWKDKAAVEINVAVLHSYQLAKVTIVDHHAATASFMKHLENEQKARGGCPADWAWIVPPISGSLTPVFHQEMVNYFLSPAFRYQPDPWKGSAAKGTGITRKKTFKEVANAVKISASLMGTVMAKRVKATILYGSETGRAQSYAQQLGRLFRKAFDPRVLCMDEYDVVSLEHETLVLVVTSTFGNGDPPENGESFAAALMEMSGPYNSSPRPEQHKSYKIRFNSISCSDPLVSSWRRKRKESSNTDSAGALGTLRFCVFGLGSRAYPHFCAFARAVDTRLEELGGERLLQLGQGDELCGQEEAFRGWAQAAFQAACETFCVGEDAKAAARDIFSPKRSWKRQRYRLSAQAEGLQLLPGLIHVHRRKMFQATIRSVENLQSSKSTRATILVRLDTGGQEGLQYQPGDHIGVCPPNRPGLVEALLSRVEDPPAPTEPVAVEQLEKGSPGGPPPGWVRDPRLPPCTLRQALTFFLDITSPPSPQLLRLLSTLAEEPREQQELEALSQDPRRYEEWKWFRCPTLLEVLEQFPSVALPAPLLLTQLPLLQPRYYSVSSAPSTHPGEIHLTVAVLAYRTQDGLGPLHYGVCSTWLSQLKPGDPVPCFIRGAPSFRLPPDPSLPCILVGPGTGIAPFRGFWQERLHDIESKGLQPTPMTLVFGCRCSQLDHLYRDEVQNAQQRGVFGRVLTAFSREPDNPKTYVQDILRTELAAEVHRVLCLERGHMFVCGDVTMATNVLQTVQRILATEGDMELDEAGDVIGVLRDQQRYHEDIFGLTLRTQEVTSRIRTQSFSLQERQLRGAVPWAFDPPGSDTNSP
Nature of the experiment: In vitro inhibition of human endothelial nitric oxide synthase.

For experiment [3], the target named is T3, Nitric oxide synthase 3 (Homo sapiens) (UniProt P29474).
T3 sequence (whole entry): T2 sequence (P29474 whole entry)
Nature of the experiment: Percentage inhibition of human endothelial nitric oxide synthase (eNOS) at 100 uM.

The target of experiment [4] is T1, Nitric oxide synthase 1. Kind of experiment: Percentage inhibition of human neuronal nitric oxide synthase (nNOS) at 100 uM.

Bounds are passed on as bounds.

T1 sequence (P29475 whole entry): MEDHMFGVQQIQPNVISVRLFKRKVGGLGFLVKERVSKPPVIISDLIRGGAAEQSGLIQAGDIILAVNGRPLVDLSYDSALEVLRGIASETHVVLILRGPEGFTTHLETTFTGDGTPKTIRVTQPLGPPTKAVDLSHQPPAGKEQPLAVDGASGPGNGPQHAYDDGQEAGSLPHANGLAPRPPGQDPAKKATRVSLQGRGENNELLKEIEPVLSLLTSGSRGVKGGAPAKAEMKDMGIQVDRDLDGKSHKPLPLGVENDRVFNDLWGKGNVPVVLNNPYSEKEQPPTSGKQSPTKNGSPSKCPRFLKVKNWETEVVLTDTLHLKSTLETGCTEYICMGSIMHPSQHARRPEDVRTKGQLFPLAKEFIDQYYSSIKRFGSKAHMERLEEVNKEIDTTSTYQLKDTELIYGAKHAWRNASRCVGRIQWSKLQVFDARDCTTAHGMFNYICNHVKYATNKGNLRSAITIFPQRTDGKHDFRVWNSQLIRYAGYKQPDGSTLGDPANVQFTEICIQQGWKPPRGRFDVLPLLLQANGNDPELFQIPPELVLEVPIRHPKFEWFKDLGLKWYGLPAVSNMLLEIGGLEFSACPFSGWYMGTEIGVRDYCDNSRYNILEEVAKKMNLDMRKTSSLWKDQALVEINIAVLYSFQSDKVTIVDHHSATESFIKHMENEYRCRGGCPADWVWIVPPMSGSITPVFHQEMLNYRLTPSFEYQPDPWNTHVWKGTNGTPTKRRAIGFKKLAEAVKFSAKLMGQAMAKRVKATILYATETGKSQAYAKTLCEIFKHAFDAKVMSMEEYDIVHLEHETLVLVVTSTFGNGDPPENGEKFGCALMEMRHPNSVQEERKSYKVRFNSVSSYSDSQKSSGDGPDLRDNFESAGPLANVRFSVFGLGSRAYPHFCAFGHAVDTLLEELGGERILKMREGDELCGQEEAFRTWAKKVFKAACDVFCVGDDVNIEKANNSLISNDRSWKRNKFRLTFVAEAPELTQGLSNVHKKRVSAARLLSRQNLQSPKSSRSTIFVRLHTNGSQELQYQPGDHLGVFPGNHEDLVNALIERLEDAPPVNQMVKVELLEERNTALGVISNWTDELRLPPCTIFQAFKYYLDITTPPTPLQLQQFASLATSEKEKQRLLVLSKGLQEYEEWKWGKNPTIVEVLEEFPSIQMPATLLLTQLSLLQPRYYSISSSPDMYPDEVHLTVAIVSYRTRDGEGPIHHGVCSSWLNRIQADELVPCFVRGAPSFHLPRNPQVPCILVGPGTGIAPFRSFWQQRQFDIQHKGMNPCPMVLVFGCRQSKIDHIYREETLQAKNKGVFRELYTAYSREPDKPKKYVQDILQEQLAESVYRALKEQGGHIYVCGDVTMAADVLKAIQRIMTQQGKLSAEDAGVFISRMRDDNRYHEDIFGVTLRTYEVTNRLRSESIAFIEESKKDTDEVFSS
Nitric oxide synthase, inducible, sequence (P35228 whole entry): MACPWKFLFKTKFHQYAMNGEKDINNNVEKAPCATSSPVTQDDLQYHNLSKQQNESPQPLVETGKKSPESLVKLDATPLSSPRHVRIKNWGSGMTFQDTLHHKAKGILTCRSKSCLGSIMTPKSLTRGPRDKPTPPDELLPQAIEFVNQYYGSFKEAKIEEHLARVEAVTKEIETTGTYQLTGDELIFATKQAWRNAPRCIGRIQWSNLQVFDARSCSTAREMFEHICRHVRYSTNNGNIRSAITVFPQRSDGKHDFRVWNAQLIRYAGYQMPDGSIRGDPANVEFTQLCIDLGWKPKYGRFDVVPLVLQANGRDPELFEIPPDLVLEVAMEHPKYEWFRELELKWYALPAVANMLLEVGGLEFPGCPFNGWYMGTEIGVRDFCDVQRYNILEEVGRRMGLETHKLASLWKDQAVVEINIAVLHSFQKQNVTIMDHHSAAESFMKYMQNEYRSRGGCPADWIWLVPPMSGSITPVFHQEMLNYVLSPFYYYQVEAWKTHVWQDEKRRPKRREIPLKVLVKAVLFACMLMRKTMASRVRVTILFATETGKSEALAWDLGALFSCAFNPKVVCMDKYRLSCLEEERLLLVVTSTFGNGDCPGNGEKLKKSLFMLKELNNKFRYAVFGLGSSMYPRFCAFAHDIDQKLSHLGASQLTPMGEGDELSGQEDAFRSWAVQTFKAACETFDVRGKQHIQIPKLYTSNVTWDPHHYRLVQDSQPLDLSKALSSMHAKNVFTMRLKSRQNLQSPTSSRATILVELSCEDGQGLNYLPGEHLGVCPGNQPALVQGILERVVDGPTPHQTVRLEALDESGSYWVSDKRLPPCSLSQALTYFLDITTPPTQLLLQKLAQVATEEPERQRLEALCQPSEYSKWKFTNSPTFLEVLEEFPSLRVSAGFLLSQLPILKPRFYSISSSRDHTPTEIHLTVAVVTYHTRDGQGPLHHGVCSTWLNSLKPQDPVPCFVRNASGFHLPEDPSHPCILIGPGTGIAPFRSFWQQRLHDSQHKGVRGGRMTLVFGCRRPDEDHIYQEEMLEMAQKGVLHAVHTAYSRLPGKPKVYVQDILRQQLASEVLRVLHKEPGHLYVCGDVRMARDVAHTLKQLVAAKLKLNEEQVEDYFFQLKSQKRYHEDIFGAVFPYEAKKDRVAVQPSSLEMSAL

For `CC(=N)NCCSCC[C@H](N)C(=O)O` [GW-274150], the results for the IC50 (in experiment [1]; on Nitric oxide synthase 1 [2]; against Nitric oxide synthase 3) were 0.07 µM, 18 µM and 34 µM, respectively.

For `N#Cc1ccc(C(=O)N2CCC3(CC2)N=C(N)c2c(F)ccc(F)c2N3)cn1`, in experiment [3], the inhibition (usually how much of the control response was suppressed) was under 20%.

Turning to `CCCC1CCCCCC(N)=N1` (stereo not given), the values for the IC50 (in experiment [1]; against Nitric oxide synthase 1 [2]; at Nitric oxide synthase 3) were 0.026 µM, 0.24 µM and 4.8 µM, respectively.

In the case of `Cc1cc(C)nc(N)c1`, the IC50 (commonly the concentration at which inhibition is half-maximal) in experiment [1] stood at 0.045 µM; at Nitric oxide synthase 1 [2] it was 0.098 µM; on Nitric oxide synthase 3, 0.17 µM.

Turning to `CCOC(=O)N1CCC(Nc2ccccn2)CC1`, the inhibition (against Nitric oxide synthase 1 [4]; in experiment [3]) was under 20% in each case. Also, the figures for the IC50 (in experiment [1]; against Nitric oxide synthase 1 [2]; against Nitric oxide synthase 3) were 13 µM, over 100 µM and over 100 µM, respectively.

As to `COc1ccnc(N)c1`, the IC50 (in experiment [1]; against Nitric oxide synthase 1 [2]; on Nitric oxide synthase 3) was 1 µM in each case.

`CCOC(=O)N1CCC(Nc2cc(OCC)ccn2)CC1`: the inhibition in experiment [3] is under 20%. Besides, the IC50 is 3.8 µM in experiment [1], 96 µM against Nitric oxide synthase 1 [2] and over 100 µM against Nitric oxide synthase 3.

Compound `CCc1ccnc(N)c1` had a half-maximal inhibitory concentration (IC50) on Nitric oxide synthase 1 [2] of 2.2 µM.

With `COc1ccnc(NC2CCN(C(=O)c3ccc(C#N)cc3)CC2)c1`, in experiment [3], the inhibition is under 20%.

In the case of `CNc1cc(C)cc(C)n1`, the inhibition at Nitric oxide synthase 1 [4] is under 20%. The IC50 is 86 µM in experiment [1], over 100 µM on Nitric oxide synthase 1 [2] and 30 µM on Nitric oxide synthase 3.

Take `COc1ccnc(NC2CCN(C(=O)c3ccc(Cl)cc3)CC2)c1`: the IC50 is 0.053 µM in experiment [1], 7.8 µM at Nitric oxide synthase 1 [2] and 36 µM against Nitric oxide synthase 3.

`CC(=N)NCCCC[C@H](N)C(=O)O` [L-NIL] yielded an IC50 against Nitric oxide synthase 1 [2] of 1.6 µM.

For `COc1ccnc(NC2CCN(C(=O)c3ccccc3)CC2)c1`, the IC50 in experiment [1] was found to be 0.53 µM; at Nitric oxide synthase 1 [2], 28 µM; against Nitric oxide synthase 3, 100 µM.
